Entries after “also recorded” stand apart in the source; their conditions may differ. Where two headings read alike, the source gives them in different places. Marks after values point to notes of the source that are not given here.
What was measured:
[1] = tested on: patients evaluated for sleep disturbances after oral surgery; experiment: Study A: single dose after oral surgery, ibuprofen, diphenhydramine and combination vs placebo; format: in vivo, human; conditions: diphenhydramine HCl 50 mg; for Duration of Sleep: 6-point categorical scale 0 (≦5 hours) to 5 (≧9 hours); for Global Evaluation: global evaluation of sleep, 5-point categorical scale; for Cumulative % Asleep at 60 minutes: nurse graded; for Sleep Latency (median): nurse observed, single dose ibuprofen 400 mg; for Time to Rescue (median): nurse recorded; for SPRID3: time-weighted sum of pain relief and pain intensity differences over 0-3 hours
Source text: A single center, inpatient, single dose, randomized (stratified by gender and baseline pain severity), double blind, double dummy, parallel group placebo controlled study was used.
In a double dummy scenario, patients are given multiple dosage forms, one study medication for the group in which they are assigned, and placebos resembling the dosage forms for the other study groups. […] The combination was in a soft gelatin capsule formulation.
The art recognizes that patient-assessed duration of sleep is a very good indicator of the amount of sleep received by the patient. If patients requested rescue medication within an hour of receiving treatment, they were considered protocol violators and removed from the study.
The SPRID3 calculation was as follows. AT 90 minutes, 2 hours, and 3 hours, the patients were woken and asked two questions: how much relief of pain have you had? (no relief=0, a little=1, some=2, a lot=3, complete=4) and what is the severity of your pain? (none=0, mild=1, moderate=2, severe=3). Pain intensity difference (PID) was determined by subtracting the severity of pain score at the time in question to the baseline score measured before treatment. The pain relief rating (PPR) was then added to the PID for a PRID score. The PRID scores were plotted on a graph over time for each patient, and the SPRID3 score was read as the area under the curve for each patient's PRID plot. SPRID3 is a combination measurement of pain relief and pain severity.
In this model, only one hour of phase shifting sleeplessness was induced, compared to three hours in subsequent studies. In other words, patients were required to go to sleep one hour earlier than their bedtime.

[2] = Interaction and stability testing of ibuprofen and diphenhydramine in one composition; format: physicochemical; conditions: dissolution, appearance, potency
Source text: An ion pair or salt could, thus, be formed. Such an interaction creates a more nonpolar composition, which may have different dissolution characteristics and absorption profile in the body. Such changes in a pharmaceutical composition may be highly undesirable, due to unpredictability of effect.

[3] = tested on: subjects of the partial factorial studies (pain after oral surgery); experiment: Pooled data of studies AE-98-01/02; format: in vivo, human; conditions: for % who required remed.: Pooled Studies AE-98-01/02
Source text: Data from two of the studies were pooled together. Some of the most significant study data are presented in Table 7, with graphical representations of the data in FIGS. 28-29.

[4] = oral administration, cited from earlier work
[5] = tested on: patients with pain following oral surgery, bedtime 3 hours early; experiment: Study B (AE-98-01): ibuprofen/diphenhydramine combination vs ibuprofen alone and placebo after oral surgery; format: in vivo, human
Method: This study was conducted in a similar manner to Example 1.
The placebo group also received soft gelatin capsules.
The trial was conducted as a randomized, stratified (by baseline pain and gender), inpatient, placebo controlled, partial factorial, single dose, double blind, parallel group, single center trial. Following oral surgery, patients were kept at the clinic site overnight. Study medications were dispenses when patients experienced pain at a moderate level or greater, and when it was between about 6:30 and 8:00 p.m. (3 hours prior to the patient's usual bedtime). Patients were required to go to sleep after receiving study medication.
The same sleep parameters were used as in Example 1. Additionally, global assessment as a pain reliever was determined. This parameter was a patient-assessed parameter made at the time of rescue medication, if needed, or in the morning, if no rescue medication. Pain relief was assessed on a five-point scale (0=poor, 1=fair, 2=good, 3=very good, 4=excellent). Sleep was monitored by an observer at regular intervals over 3 hours post-dosing. Patients provided pain assessments at 90 and 120 minutes post-dosing. Patients also provided subjective assessments of sleep efficacy, global assessments of sleep and pain the next morning or at the time rescue medication was used.
The following statistical methods were used. All analyses were done using SAS® Version 6.12. Subjective sleep and pain assessments were analyzed by analysis of variance (ANOVA), incorporating effects for treatment, baseline pain severity rating (PSR), and gender in the model. In addition, the interactions of treatment-by-baseline PSR and treatment-by-gender were assessed (at the 0.15 level) in separate models, by adding interaction terms, one at a time, to the initial ANOVA model. The distributions of sleep latency and time to rescue medication were assessed using the Kaplan-Meier estimates, and the variables were analyzed using the Cox proportional hazards regression model with treatment, baseline PSR and gender effects. In addition, the interactions of treatment-by-baseline PSR and treatment-by-gender were assessed (at the 0.15 level) in separate models by adding each interaction term, one at a time, to the initial model.
If each interaction was generally significant (p≦0.15), it was retained in the final model. In the assessment of treatment effects in the presence of interactions, each level of the stratifying variable were to be weighted equally (consistent with the ANOVA models). Ninety-five percent confidence intervals for the median time to sleep and median time to rescue medication were derived. In addition, the actual and cumulative proportion of subjects asleep at each observation time point and the cumulative proportion of subjects who took rescue medication by each observation time point were analyzed by the Cochran-Mantel-Haenszel test controlling for baseline PSR and gender.
In order to protect the Type I error at the 0.05 level, comparisons were tested in sequential order. Each step had to be significant for the subsequent steps to be eligible for significance.
The secondary end points were assessed at the 0.05 level of significance, in the same sequential order.
The primary analysis of efficacy was conducted on the intent-to-treat population, which included all randomized subjects who took the study medication and had at least one post-baseline (sleep and pain) efficacy assessment.

[6] = tested on: normal sleep patterns in humans; conditions: cited from earlier work
[7] = tested on: subjects with pain following oral surgery, bedtime at least 3 hours early; experiment: Study C (AE-98-02): ibuprofen/diphenhydramine combination vs ibuprofen alone after oral surgery; format: in vivo, human
Method: This was a randomized stratified (by baseline pain and gender), inpatient, placebo-controlled, partial-factorial, single-dose, double-blind, parallel group, single-center trial. Following oral surgery, subjects were housed and observed at a clinic site overnight. When subjects experienced at least moderate pain and it was between approximately 6:30 PM and 8:00 PM (at least 3 hours earlier than their usual bedtime), they received study medication and were required to go to bed for the evening. Sleep was evaluated by an observer at regular intervals over 3 hours post-dosing. […] Subjects also provided subjective assessments of sleep efficacy as well as global assessments of the study medication as a sleep-aid and as an analgesic the next morning (or at the time rescue medication was used).
The patients were assessed for duration of sleep, cumulative percent of subjects asleep at 60 minutes post-dosing (based on observed sleep latency assessments). they were also assessed for pain using SPRID2 (time-weighted sum of pain relief and pain intensity differences from baseline over 0-2 hours). Sleep latency (observer based), ease of falling asleep, and global evaluation of sleep were also used.
Cumulative percent of subjects asleep by 60 minutes was analyzed by the Cochran-Mantel-Haenszel test controlling for baseline PSR and gender. Subjective sleep and pain assessments were analyzed by analysis of variance (ANOVA), incorporating effects for treatment, baseline pain severity rating (PSR), and gender in the model. The distributions of sleep latency and time to rescue medication were assessed using the Kaplan-Meier estimates, and the variables were analyzed using the Cox proportional hazards (PH) regression model with treatment, baseline PSR, and gender effects. For both ANOVA and PH models, the interactions of treatment-by-baseline PSR and treatment-by-gender were assessed (at the 0.15 level) in separate models by adding each interaction term, one at a time, to the initial model. If each interaction was generally significant (p≦0.15), it was retained in the final model. In the assessment of treatment effects in the presence of interactions, each level of the stratifying variable was to be weighted equally.
In order to protect the Type I error at the 0.05 level, comparisons were tested in sequential order for the primary as well as the secondary efficacy endpoints. Each step had to be significant for the subsequent steps to be eligible for significance. […] The secondary end points were assessed, at the 0.05 level of significance, in a similar sequential order. The primary analysis of efficacy was based on the intent-to-treat (ITT) population, which included all randomized subjects who took study medication and had at least one post-baseline (sleep and pain) efficacy assessment.

[8] = Study B, 5-point scale 0=poor to 4=excellent, IBU 400 mg, DPH 50 mg
[9] = Study C, 5-point scale 0=poor to 4=excellent, IBU 400 mg, DPH 50 mg

With `CN(C)CCOC(c1ccccc1)c1ccccc1` [DPH, 2-(diphenylmethoxy)-N,N-dimethylethylamine] the “Duration of Sleep” value ([1]; ibuprofen 400 mg) was 0.23 A, the “Global Evaluation” value ([1]; ibuprofen 400 mg) was 0.77 A and the “% Requiring Rescue” value ([1]; ibuprofen 400 mg) was 97% B. The “Cumulative % Asleep at 60 minutes” value ([1]; ibuprofen 400 mg) was 61.3 A %, the “Sleep Latency (median)” value [1] was 51.3 A and the “Time to Rescue (median)” value ([1]; ibuprofen 400 mg) was 2.04 A hours. The SPRID3 ([1]; ibuprofen 400 mg) was 1.8 A and the “interaction between ibuprofen and diphenhydramine in the composition” value [2] was “much more prone to interaction than the citrate form”.

With `CC(C)Cc1ccc(C(C)C(=O)O)cc1` (centres unmarked) [IBU, Ibuprofen] the “Ease of Falling Asleep” value ([1]; 5-point scale 0=did not fall asleep to 4=very easy, ibuprofen 400 mg) was 2.10 B, the “Duration of Sleep” value ([1]; ibuprofen 400 mg) was 2.68 B and the “Global Evaluation” value ([1]; ibuprofen 400 mg) was 1.84 B. For the same compound, the “% Requiring Rescue” value ([1]; ibuprofen 400 mg) was 45% B, the “Cumulative % Asleep at 60 minutes” value ([1]; ibuprofen 400 mg) was 77.4 AB % and the Sleep Latency (median) [1] was 25 min. The “Sleep Latency (median)” value ([1]; listed as ibuprofen) was “significantly better than the diphenhydramine and placebo groups”, the “Time to Rescue (median)” value ([1]; ibuprofen 400 mg) was over 10 B hours and the SPRID3 ([1]; ibuprofen 400 mg) was 13.7 B. For the same compound, the “% who required remed.” value [3] was “(45%)”, the “% who required remed.” value ([3]; listed as ibuprofen) was 45% and the “Time to Remed.” value ([3]; Table 7, Pooled Studies AE-98-01/02) was over 12.0 B hrs. The “Duration of Sleep” value ([3]; Table 7, Pooled Studies AE-98-01/02, 6-point scale) was 2.12 B, the “Global Eval - Sleep-Aid” value ([3]; Table 7, pooled studies, 5-point scale 0-Poor to 4 = Excellent) was 1.60 B and the “subjects who slept for less than 5 hours” value ([3]; pooled data) was 32%. The “time to peak serum concentrations” value ([4]; suspensions) was at most 1 h, the “time to peak serum concentrations” value ([4]; tablets) was at most 2 h and the “Ease of Falling Asleep - mean” value ([5]; Study B, 5-point scale 0-4, IBU 400 mg, DPH 50 mg) was 1.81*. The “Global Assessment as a Pain Reliever” value [5, 8] was 2.30*, the “Global Assessment as a Sleep-Aid” value [5, 8] was 1.63* and the “Duration of Sleep - mean” value ([5]; Study B, 6-point categorical scale, IBU 400 mg, DPH 50 mg) was 2.26*. For the same compound, the “PRID 90 minutes” value ([5]; Study B, 90 minutes post-dosing, IBU 400 mg, DPH 50 mg) was 3.72*, the “PRID 120 minutes” value ([5]; Study B, 120 minutes post-dosing, IBU 400 mg, DPH 50 mg) was 4.09* and the “% Requiring Rescue Medication for Any Reason” value ([5]; Study B, IBU 400 mg, DPH 50 mg) was 48.3* %. The SPRID2 ([5]; Study B, IBU 400 mg, DPH 50 mg) was 7.63*, the “Sleep Latency (Observed) - median” value ([5]; Study B, IBU 400 mg, DPH 50 mg) was 44.0* minutes and the “Time to Rescue Medication for Any Reason” value ([5]; Study B, IBU 400 mg, DPH 50 mg) was >12* hours. For the same compound, the “Cumulative % Asleep at 60 minutes” value ([5]; Study B, IBU 400 mg, DPH 50 mg, soft gelatin capsules) was 64.4^† %, the “% who required remed.” value ([5]; Table 7, Study AE-98-01) was “(48%)” and the “Time to Remed.” value ([5]; Table 7, Study AE-98-01) was over 12.0 B hrs. The “Global Eval - Sleep-Aid” value ([5]; Table 7, Study AE-98-01, 5-point scale 0-Poor to 4 = Excellent) was 1.63 B, the “Duration of Sleep” value ([5]; Table 7, Study AE-98-01, 6-point scale 0 = <5 hrs to 5 = >9 hrs) was 2.26 B and the “effect on sleep (Gengo 1996)” value ([6]; healthy adults) was “no impact on sleep”. The “effect on sleep (Murphy et al. 1994)” value ([6]; patients not suffering from pain) was “increase the number of awakenings and percentage of time spent in stage wake, and decrease sleep efficiency; also recorded: delay the onset of deeper stages of sleep”, the “Ease of Falling Asleep” value ([7]; Study C, 5-point scale 0-4, IBU 400 mg, DPH 50 mg) was 1.89^† and the “Global Assessment as a Pain Reliever” value [7, 9] was 2.51^†. For the same compound, the “Global Assessment as a Sleep-Aid” value [7, 9] was 1.57^†, the “Duration of Sleep” value ([7]; Study C, 6-point categorical scale, IBU 400 mg, DPH 50 mg, soft gelatin capsules) was 1.98^† and the “PRID 90 minutes” value ([7]; Study C, 90 minutes post-dosing, IBU 400 mg, DPH 50 mg) was 3.83^†,§. The “PRID 120 minutes” value ([7]; Study C, 120 minutes post-dosing, IBU 400 mg, DPH 50 mg) was 4.13^†, the “% Requiring Rescue Medication for Any Reason” value ([7]; Study C, IBU 400 mg, DPH 50 mg) was 42.3^† % and the “Cumulative % Asleep at 60 minutes” value ([7]; Study C, IBU 400 mg, DPH 50 mg) was 75.6^† %. For the same compound, the “Time to Rescue Medication for Any Reason” value ([7]; Study C, IBU 400 mg, DPH 50 mg) was >12^† hours, the SPRID2 ([7]; Study C, over 0-2 hours, IBU 400 mg, DPH 50 mg) was 7.81^†,§ and the “% who required remed.” value ([7]; Table 7, Study AE-98-02) was “(42%)”. The “Time to Remed.” value ([7]; Table 7, Study AE-98-02) was over 12.0 B hrs, the “Global Eval - Sleep-Aid” value ([7]; Table 7, Study AE-98-02, 5-point scale 0-Poor to 4 = Excellent) was 1.57 B and the “Duration of Sleep” value ([7]; Table 7, Study AE-98-02, 6-point scale 0 = <5 hrs to 5 = >9 hrs) was 1.98 B.

Source: patent US8883849B2, “Treatment of sleep disturbances” (Wyeth LLC, priority 2001, dated 2014)
